Data reported in patent US8466162B2, “5-alkynyl-pyridines” (Boehringer Ingelheim International GmbH, priority 2011, dated 2013).
pEC50, pIC50: −log10 of the molar value.

Legend:
[1] = tested on: H460 cells; test: alamarBlue H460 cell assay (antiproliferative/cytotoxicity); format: cell-based; conditions: NCI-H460; H460 human lung carcinoma cells
Source text: (§1) The H460, MB453, U87, MCF7 and BT474 alamarBlue cell assays provide EC50 values indicative of the antiproliferative or cytotoxic effects of the compounds to respectively the H460 (human non small cell line cancer), MB-453 (breast cancer cell line), U87 (glioblastoma cell line), MCF7 (breast cancer cell line) and BT474 (breast cancer cell line). As known in the field, antiproliferative or cytotoxic effect against this cell lines would be expected to be indicative of activity in treating lung, breast and brain cancers. See R. Marone R et al. Biochim. Biophys. Acta. 2008 January; 1784(1):159-85. S. Yaguchi et al., J. Natl. Cancer Inst. 2006 Apr. 19; 98(8):545-56.
(§2) Method Type: Antiproliferative/Cytotoxicity
(§3) alamarBlue® is designed to provide a rapid and sensitive measure of cell proliferation and cytotoxicity in various human and animal cell lines. The assay is based on the reduction of alamarBlue in the reducing environment of living (metabolically active) cells. In the presence of added cytotoxic or antiproliferative compounds, the innate metabolic activity ceases.
(§4) AlamarBlue is soluble and stable in culture medium. Measurements are made fluorometrically by exciting at 530-560 nm and measuring emission at 590 nm. In reporting percent alamarBlue reduction by monitoring fluorescence, data are expressed as fluorescence emission intensity units as a function of time of incubation.
(§5) 3. Equipment • 96-well plates, flat bottom (Falcon, Cat. No.: 353072) • 96-well plates, U-shaped (Costar, Cat. No.: 3799) • CO2-Incubator • Microplate Reader, Spectramax Plus, Molecular Devices 4. Typical Procedure • Day 0: Seed 3000 BT-474 cells (IMDM/5% FCS, 1% NEAA, 1% Sodiumpyruvat) in 150 μl medium into a 96-well plate, flat bottom (include mediumblank). Incubate plates at 37° C. in a CO2 incubator overnight. • Day 1: Dilute compounds to a concentration 40 μM ->1:3 in medium, 10 dilution steps, in 96-well plates. • Add 50 μl per well of each dilution (total volume per well 200 μl; final conc. of cpds: 10 μM ->1:3). If required, test further dilutions. • All concentrations are tested in duplicates. • Controls: Cells w/o cpd. (+50 μl medium/DMSO). • Cells are incubated with compounds for 5-6 days. • Day 6 or 7: Add 25 μl of alamarBlue solution to each well and incubate for 8 hours at 37° C. Measure fluorescence by exciting at 530-560 nm and measuring emission at 590 nm 5. Evaluation • Subtract average value for medium blank from sample readings • Calculate EC50 using GraphPad Prism (Fifty)

[2] = tested on: BT474 cells; test: alamarBlue BT474 cell assay (antiproliferative/cytotoxicity); format: cell-based; conditions: BT-474 human breast cancer cell line, 5-6 days incubation
Source text: as §1, §2, §3, §4, §5

[3] = target: T1, PI3Kalpha (Homo sapiens, UniProt P42336); test: Inhibition of PI3Kalpha-induced PIP-2 phosphorylation (filter-binding assay, 33P-ATP); format: biochemical; conditions: PI3 Kinase alpha (p85alpha/His-p110alpha), 1 μM ATP; read-out: IC50 PI3Kα
T1 construct: His (N); made in house; host or cells: SF9 insect cells (baculovirus co-infection)
T1 sequence (P27986 whole entry): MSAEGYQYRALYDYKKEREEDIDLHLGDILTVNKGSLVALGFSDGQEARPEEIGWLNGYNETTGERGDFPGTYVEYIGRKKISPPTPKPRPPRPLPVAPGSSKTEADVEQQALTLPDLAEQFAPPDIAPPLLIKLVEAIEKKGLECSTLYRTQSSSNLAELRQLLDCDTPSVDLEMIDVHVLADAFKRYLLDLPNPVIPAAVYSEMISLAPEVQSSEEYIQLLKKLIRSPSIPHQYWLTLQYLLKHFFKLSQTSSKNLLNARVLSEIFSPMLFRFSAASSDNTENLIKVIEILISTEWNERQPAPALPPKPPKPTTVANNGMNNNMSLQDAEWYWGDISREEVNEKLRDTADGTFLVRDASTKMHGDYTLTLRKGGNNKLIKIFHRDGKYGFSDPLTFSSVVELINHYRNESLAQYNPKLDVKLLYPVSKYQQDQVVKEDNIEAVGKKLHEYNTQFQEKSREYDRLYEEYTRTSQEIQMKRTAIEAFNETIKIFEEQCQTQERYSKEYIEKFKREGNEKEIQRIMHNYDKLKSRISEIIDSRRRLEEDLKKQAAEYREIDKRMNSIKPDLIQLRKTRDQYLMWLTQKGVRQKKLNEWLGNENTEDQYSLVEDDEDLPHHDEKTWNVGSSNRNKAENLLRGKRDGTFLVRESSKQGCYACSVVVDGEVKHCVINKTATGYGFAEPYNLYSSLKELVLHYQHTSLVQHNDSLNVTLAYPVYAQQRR
T1 sequence (P42336 whole entry): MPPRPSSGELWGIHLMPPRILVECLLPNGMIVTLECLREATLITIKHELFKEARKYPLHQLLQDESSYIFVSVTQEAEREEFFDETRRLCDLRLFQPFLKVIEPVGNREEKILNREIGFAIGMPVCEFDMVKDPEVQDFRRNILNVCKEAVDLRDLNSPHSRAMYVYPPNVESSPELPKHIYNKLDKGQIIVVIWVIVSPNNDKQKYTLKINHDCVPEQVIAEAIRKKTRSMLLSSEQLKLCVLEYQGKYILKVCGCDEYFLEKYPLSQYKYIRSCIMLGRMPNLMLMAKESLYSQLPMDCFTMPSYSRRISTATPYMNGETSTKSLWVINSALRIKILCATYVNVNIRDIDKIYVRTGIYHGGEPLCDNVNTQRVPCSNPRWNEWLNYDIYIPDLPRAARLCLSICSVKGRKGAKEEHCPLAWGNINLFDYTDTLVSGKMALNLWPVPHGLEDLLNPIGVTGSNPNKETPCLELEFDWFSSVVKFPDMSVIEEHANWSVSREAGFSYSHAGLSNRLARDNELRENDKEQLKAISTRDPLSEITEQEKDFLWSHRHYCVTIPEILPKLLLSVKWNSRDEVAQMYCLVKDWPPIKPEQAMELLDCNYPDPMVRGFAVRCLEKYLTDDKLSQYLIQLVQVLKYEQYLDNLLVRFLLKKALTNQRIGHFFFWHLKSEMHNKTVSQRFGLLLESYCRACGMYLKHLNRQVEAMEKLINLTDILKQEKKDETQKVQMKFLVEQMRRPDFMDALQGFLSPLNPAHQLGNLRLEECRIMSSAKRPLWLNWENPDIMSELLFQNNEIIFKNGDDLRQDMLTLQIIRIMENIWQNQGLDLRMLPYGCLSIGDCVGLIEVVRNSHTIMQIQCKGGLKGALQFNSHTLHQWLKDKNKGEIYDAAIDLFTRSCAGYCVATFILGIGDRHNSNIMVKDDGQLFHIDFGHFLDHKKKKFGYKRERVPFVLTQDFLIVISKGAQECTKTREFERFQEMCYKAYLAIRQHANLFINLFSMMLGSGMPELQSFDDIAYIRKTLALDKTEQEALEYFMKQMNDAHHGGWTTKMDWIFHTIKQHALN
Protocol: Biological Methods Inhibition of PI3Kalpha-Induced PIP-2 Phosphorylation
See also J. A. Engelman, Nature Reviews Cancer, 2009, 9, 550-562; A. Carnero, Expert Opin. Investig. Drugs, 2009, 18, 1265-1277 and P. Liu et al., Nature Reviews Drug Discovery, 2009, 8, 627-64.
Method Type: Filter-Binding-Assay
Aliquoted in desired amounts and stored at −80° C. […] Assay Procedure
The substrate-containing lipid vesicles are dissolved to a concentration of 0.637 mg lipid blend/ml assay buffer (with BSA, freshly added) in 50 ml Falcon ->keep on ice, followed by ultrasonication (pulse of 15 sec followed by a pause of 10 sec, 4×). Compounds are serially diluted in assay buffer+6% DMSO and 10 μl of each dilution is added per well of a 96-well plate (compounds are tested in duplicates) and mixed with 30 μl of the lipid vesicles containing PDGFR-Peptide (0.5 μM final) and PI3K alpha (25 ng/well final). The mixture is then incubated for 20 minutes at room temperature.
Subsequently, 20 μl of assay buffer containing 3 μM cold ATP and 0.5 μCi/20 μl 33P-ATP are added. The plates are then incubated at room temperature for 120 minutes (shaking with 300 rpm).
The reaction mix is transferred onto filter plates using “filtermate harvester” from Packard: filter plates are rinsed with PBS, then the reaction mix is filtered onto the filter plate, washed 5 times with PBS and are allowed to dry for 30-60 minutes at 50° C. The plate bottom is sealed with Perkin Elmer white adhesive foil and 25 μl/well Microscint0 are added, the top is covered with transparent adhesive foil and the plate is measured with Wallac Trilux 1450 Microbeta Counter.
As positive control serve wells containing vehicle controls (1% DMSO in assay buffer), showing non-inhibited kinase activity (high values). Wells containing assay buffer instead of enzyme can serve as control for background activity (low values).
Calculate IC50 values using the Smiley program (based on GrapPad Prism)

[4] = tested on: MCF7 cells; test: alamarBlue MCF7 cell assay (antiproliferative/cytotoxicity); format: cell-based; conditions: MCF7 human breast cancer cell line
Source text: as §1, §2, §3, §4, §5

[5] = tested on: MB453 cells; test: alamarBlue MB453 cell assay (antiproliferative/cytotoxicity); format: cell-based; conditions: Homo sapiens; MDA MB 453 breast cancer cell line
Source text: as §1, §2, §3, §4, §5

Compound	pEC50 [1]	pEC50 [2]	pIC50 [3]	pEC50 [4]	pEC50 [5]
COc1ncc(C#Cc2c(C)nc(N)nc2-c2ccnc(C)c2)cc1NS(C)(=O)=O [Example 21, N-{5-[2-Amino-4-methyl-6-(2-methyl-pyridin-4-yl)-pyrimidin-5-ylethynyl]-2-methoxy-pyridin-3-yl}-methanesulfonamide]	7.06	6.53	8.70	7.66	
COc1ncc(C#Cc2c(C)nc(N)nc2-c2ccnc(C)c2)cc1NS(=O)(=O)c1ccc(F)cc1F [Example 22, N-{5-[2-Amino-4-methyl-6-(2-methyl-pyridin-4-yl)-pyrimidin-5-ylethynyl]-2-methoxy-pyridin-3-yl}-2,4-difluoro-benzenesulfonamide]	7.89	7.54	9.44	8.52	
CNC(=O)c1ccc(-c2nc(N)nc(C)c2C#Cc2cnc(C)c(NS(C)(=O)=O)c2)cc1Cl [Example 25, 4-[2-Amino-5-(5-methanesulfonylamino-6-methyl-pyridin-3-ylethynyl)-6-methyl-pyrimidin-4-yl]-2-chloro-N-methyl-benzamide]	6.42	6.64	8.52	6.91	
CNC(=O)c1ccc(-c2nc(N)nc(C)c2C#Cc2cnc(Cl)c(NS(C)(=O)=O)c2)cc1Cl [Example 26, 4-[2-Amino-5-(6-chloro-5-methanesulfonylamino-pyridin-3-ylethynyl)-6-methyl-pyrimidin-4-yl]-2-chloro-N-methyl-benzamide]	6.82	7.28	9.08	7.77	
CCc1ncnc(-c2cccc(C#N)c2)c1C#Cc1cnc(C)c(NS(=O)(=O)c2ccc(F)cc2F)c1 [Example 29, N-{5-[4-(3-Cyano-phenyl)-6-ethyl-pyrimidin-5-ylethynyl]-2-methyl-pyridin-3-yl}-2,4-difluoro-benzenesulfonamide]	6.59	6.55	9.04	7.08	6.59
CCc1ncnc(-c2cccc(CN(C)C)c2)c1C#Cc1cnc(C)c(NS(=O)(=O)c2ccc(F)cc2F)c1 [Example 30, N-{5-[4-(3-Dimethylaminomethyl-phenyl)-6-ethyl-pyrimidin-5-ylethynyl]-2-methyl-pyridin-3-yl}-2,4-difluoro-benzenesulfonamide]	6.46	6.97	8.70	7.11	6.73
CCc1nc(N)nc(-c2cccc(C#N)c2)c1C#Cc1cnc(C)c(NS(=O)(=O)c2ccc(F)cc2F)c1 [Example 34, N-{5-[2-Amino-4-(3-cyano-phenyl)-6-ethyl-pyrimidin-5-ylethynyl]-2-methyl-pyridin-3-yl}-2,4-difluoro-benzenesulfonamide]	6.83	6.97	9.05	7.77	6.76
CCc1ncnc(-c2ccc(C(=O)N3CCN(C)CC3)c(F)c2)c1C#Cc1cnc(C)c(NS(C)(=O)=O)c1 [Example 81, N-(5-{4-Ethyl-6-[3-fluoro-4-(4-methyl-piperazine-1-carbonyl)-phenyl]-pyrimidin-5-ylethynyl}-2-methyl-pyridin-3-yl)-methanesulfonamide]	5.63	6.32	8.52	6.52	
CCc1nc(N)nc(-c2ccc(C(=O)N3CCN(C)CC3)c(F)c2)c1C#Cc1cnc(C)c(NS(C)(=O)=O)c1 [Example 82, N-(5-{2-Amino-4-ethyl-6-[3-fluoro-4-(4-methyl-piperazine-1-carbonyl)-phenyl]-pyrimidin-5-ylethynyl}-2-methyl-pyridin-3-yl)-methanesulfonamide]	5.64	6.29	9.00	6.71	
